# Earlier results, collected in patent US20240216329A1, “PUTRESCINE TOPICAL FORMULATIONS” (VIVIER CANADA INC., priority 2017, published 2024).
# Columns and labels:
# [1] = test system: collagen cross-linking (fibroblast tissue transglutaminase); details: in vitro and in vivo
# [2] = test system: scar fibroblasts; details: human harvested scars
# [3] = test system: epidermis of eroded skin
compound,measurement,setting,value
"NCCCCN [putrescine, 1,4-diaminobutane]",collagen cross-linking,[1],reduce collagen cross-linking
same,apoptosis of scar fibroblasts,[2],increase in apoptosis of scar fibroblasts
same,barrier function of the epidermis,"[3]; eroded skin, topical",increasing its barrier function
same,thickness of the stratum lucidum / inner strata of epidermis,"[3]; stratum lucidum in animals, inner strata of human epidermis",increasing
